Measured values: the OPERA property sets (Mansouri et al. 2018)

SMILES	logP
O=C(NCC(O)c1ccc([N+](=O)[O-])cc1)C(F)(F)F (stereo not drawn)	1.46
CC1=Nc2c([N+](=O)[O-])cc(Cl)cc2S(=O)(=O)N1	0.85
CCN1C(=O)SC(=Cc2ccc([N+](=O)[O-])o2)C1=O	2.29
CCCc1nnc(SC)n(N)c1=O	0.93
COC(=O)C(C#N)=NNc1ccc(Cl)cc1C	4.3
O=S(=O)(Nc1cccc(Cl)c1)C(F)(F)F	4
O=NN1CCCN(N=O)CC1	-0.51
COCc1c(OC)cc(Cc2cnc(N)nc2N)cc1OC	1.19
O=S1(=O)NC(C(Cl)Cl)=Nc2cc(Cl)ccc21	1.81
Cc1ccc(OC(=O)CNC(=O)c2ccccc2)cc1	2.83
CCCCNc1nnc(C(C)C)c(=O)n1N	1.78
CO[C@@]12[C@@H]3N[C@@H]3CN1C1=C(C(=O)C(Nc3nc(C)c(C)s3)=C(C)C1=O)[C@@H]2COC(N)=O	1.29
CN(C)C(=O)c1cnc2ccccc2c1	0.99
COc1ccc(C(=O)c2ccncc2)cc1	1.94
CN1C(=O)OC(c2ccccc2)C1=O (stereo not drawn)	1.06
Nc1cc([N+](=O)[O-])cc(Cl)c1O	1.53
CNC1C2CCC1c1ccccc12 (stereo not drawn)	2.37

SMILES	logP
CCSc1c(OC)cc(Cc2cnc(N)nc2N)cc1OC	1.79
CN(C)c1ccc2c(c1)C(c1ccccc1)=NCC(=O)N2C	2.63
CSC(C)=NOC(=O)N(C)SN(C)C(=O)c1ccc(Cl)cc1Cl	3.2
CN(C)C(=O)CCc1ccco1	0.62
NS(=O)(=O)c1cc2c(cc1[N+](=O)[O-])NCNS2(=O)=O	0.2
CC(C)N1CCOC(c2cccc(Cl)c2)C1 (stereo not drawn)	3.27
Cc1nc(-c2ccccn2)no1	0.79
Nc1ccc(C(O)C(CO)NC(=O)C(Cl)Cl)cc1 (stereo not drawn)	-0.29
CN(C)CCc1cccs1	1.99
CSc1nnc(C2CCCCO2)c(=O)n1N (stereo not drawn)	0.38
CC(=O)CNc1ccccc1C(N)=O	0.61
COc1cc(OC)c(OC)cc1CC(C)N (stereo not drawn)	1.74
CCOC(=O)CN(C(=O)CCl)c1ccccc1Cl	2.3
CCCCCCCCCCCC[n+]1ccccc1C.[I-]	1.32
CSC(C)=NOC(=O)N(C)SN(C(=O)c1ccc(C)cc1)C(C)C	3.4
CCC(C)On1c(=O)[nH]c(C)c(Br)c1=O (stereo not drawn)	1.11
